According to patent publication US11813305B2, “Endoplasmic reticulum stress as a predictive tool in cancer therapy and a combination therapy for the treatment of cancer” (IMMUNE SYSTEM KEY LTD., priority 2016, dated 2023):
Square brackets hold non-standard residues; d marks the D form. Peptide text beside a SMILES is read from it.

Assay: Safety and tolerability (adverse events, DLT, MTD), phase I study
Format: in vivo, human
Source text: The present clinical study is a formal open label phase I dose escalation study. The primary objective was to determine the maximum tolerated dose (MTD) and safety profile of dTCApFs. Assessments included drug exposure, adverse events (AEs; graded according to the Common Terminology Criteria for Adverse Events (CTCAE), and characterization of dose-limiting toxicities (DLTs). Other objectives included assessment of serum levels of angiogenic factors after dTCApFs administration, pharmacokinetics (PK) and pharmacodynamics (PD) analyses, as well as assessment of receptor staining and tumor response. […]
Subjects with evaluable or measurable disease are assessed according to the response evaluation criteria in solid tumors (RECIST) version 1.1 every 2 cycles, where a cycle is defined as 4 weeks of treatment with three administrations per week. Tumor lesion measurements and changes from baseline are summarized by cycle and dose cohort.

SMILES: CC(C)C[C@@H](NC(=O)[C@H](NC(=O)[C@@H](CO)NC(=O)[C@H]1CCCN1C(=O)[C@@H](CC(C)C)NC(=O)[C@@H](Cc1ccccc1)NC(=O)[C@@H](Cc1ccccc1)NC(=O)[C@H](NC(=O)[C@@H](Cc1c[nH]c2ccccc12)NC(=O)[C@H](N)Cc1c[nH]c2ccccc12)[C@H](C)O)[C@H](C)O)C(=O)N[C@H](Cc1c[nH]c2ccccc12)C(=O)N[C@H](CCC(=O)O)C(=O)N[C@H](CCCNC(=N)N)C(=O)N[C@H](CCCCN)C(=O)O [dTCApFs, Trp Trp Thr Phe Phe Leu Pro Ser Thr Leu Trp Glu Arg Lys] (H-[dW][dW][dT][dF][dF][dL][dP][dS][dT][dL][dW][dE][dR][dK]-OH; N-terminus and C-terminus assumed)
- Adverse event Grade 1: Abdominal pain (6 mg/m^2, n = 3): 0
- Adverse event Grade 1: Anemia (6 mg/m^2, n = 3): 3
- Adverse event Grade 1: Bowel obstruction (6 mg/m^2, n = 3): 1
- Adverse event Grade 1: Dehydration (6 mg/m^2, n = 3): 0
- Adverse event Grade 1: Diarrhea (6 mg/m^2, n = 3): 0
- Adverse event Grade 1: Fatigue (6 mg/m^2, n = 3): 0
- Adverse event Grade 1: GI hemorrhage (6 mg/m^2, n = 3): 1
- Adverse event Grade 1: Hypertension (6 mg/m^2, n = 3): 3
- Adverse event Grade 1: Increased INR (6 mg/m^2, n = 3): 0
- Adverse event Grade 1: Neuropathy (6 mg/m^2, n = 3): 0
- Adverse event Grade 1: Vomiting (6 mg/m^2, n = 3): 2
- Adverse event Grade 2: ALT increase (6 mg/m^2, n = 3): 0
- Adverse event Grade 2: AST increase (6 mg/m^2, n = 3): 0
- Adverse event Grade 2: Bilirubin increase (6 mg/m^2, n = 3): 0
- Adverse event Grade 2: Cough (6 mg/m^2, n = 3): 0
- Adverse event Grade 2: Liver dysfunction (6 mg/m^2, n = 3): 0
- Adverse event Grade 2: Pain, leg (6 mg/m^2, n = 3): 0
- Adverse event Grade 2: Pain, upper back (6 mg/m^2, n = 3): 0
- Adverse event Grade 2: Pruritus (6 mg/m^2, n = 3): 0
- Adverse event Grade 2: Urinary tract infection (6 mg/m^2, n = 3): 0
- Adverse event Grade 2: Urticaria (6 mg/m^2, n = 3): 0
- Adverse event Grade 3: Bilirubin increase (6 mg/m^2, n = 3): 0
- Adverse event Grade 3: Bowel obstruction (6 mg/m^2, n = 3): 1
- Adverse event Grade 3: Diarrhea (6 mg/m^2, n = 3): 0
- Adverse event Grade 3: GI hemorrhage (6 mg/m^2, n = 3): 1
- Adverse event Grade 3: Hypertension (6 mg/m^2, n = 3): 2
- Adverse event Grade 3: Increased INR (6 mg/m^2, n = 3): 0
- Adverse event Grade 4: Vomiting (6 mg/m^2, n = 3): 0
- Adverse event Grade 1: Abdominal pain (12 mg/m^2, n = 3): 1
- Adverse event Grade 1: Anemia (12 mg/m^2, n = 3): 0
- Adverse event Grade 1: Bowel obstruction (12 mg/m^2, n = 3): 0
- Adverse event Grade 1: Dehydration (12 mg/m^2, n = 3): 0
- Adverse event Grade 1: Diarrhea (12 mg/m^2, n = 3): 2
- Adverse event Grade 1: Fatigue (12 mg/m^2, n = 3): 1
- Adverse event Grade 1: GI hemorrhage (12 mg/m^2, n = 3): 0
- Adverse event Grade 1: Hypertension (12 mg/m^2, n = 3): 1
- Adverse event Grade 1: Increased INR (12 mg/m^2, n = 3): 0
- Adverse event Grade 1: Neuropathy (12 mg/m^2, n = 3): 1
- Adverse event Grade 1: Vomiting (12 mg/m^2, n = 3): 0
- Adverse event Grade 2: ALT increase (12 mg/m^2, n = 3): 0
- Adverse event Grade 2: AST increase (12 mg/m^2, n = 3): 0
- Adverse event Grade 2: Bilirubin increase (12 mg/m^2, n = 3): 0
- Adverse event Grade 2: Cough (12 mg/m^2, n = 3): 1
- Adverse event Grade 2: Liver dysfunction (12 mg/m^2, n = 3): 0
- Adverse event Grade 2: Pain, leg (12 mg/m^2, n = 3): 2
- Adverse event Grade 2: Pain, upper back (12 mg/m^2, n = 3): 0
- Adverse event Grade 2: Pruritus (12 mg/m^2, n = 3): 0
- Adverse event Grade 2: Urinary tract infection (12 mg/m^2, n = 3): 1
- Adverse event Grade 2: Urticaria (12 mg/m^2, n = 3): 0
- Adverse event Grade 3: Bilirubin increase (12 mg/m^2, n = 3): 0
- Adverse event Grade 3: Bowel obstruction (12 mg/m^2, n = 3): 0
- Adverse event Grade 3: Diarrhea (12 mg/m^2, n = 3): 1
- Adverse event Grade 3: GI hemorrhage (12 mg/m^2, n = 3): 0
- Adverse event Grade 3: Hypertension (12 mg/m^2, n = 3): 1
- Adverse event Grade 3: Increased INR (12 mg/m^2, n = 3): 0
- Adverse event Grade 4: Vomiting (12 mg/m^2, n = 3): 0
- Adverse event Grade 1: Abdominal pain (24 mg/m^2, n = 3): 2
- Adverse event Grade 1: Anemia (24 mg/m^2, n = 3): 0
- Adverse event Grade 1: Bowel obstruction (24 mg/m^2, n = 3): 0
- Adverse event Grade 1: Dehydration (24 mg/m^2, n = 3): 0
- Adverse event Grade 1: Diarrhea (24 mg/m^2, n = 3): 0
- Adverse event Grade 1: Fatigue (24 mg/m^2, n = 3): 0
- Adverse event Grade 1: GI hemorrhage (24 mg/m^2, n = 3): 0
- Adverse event Grade 1: Hypertension (24 mg/m^2, n = 3): 1
- Adverse event Grade 1: Increased INR (24 mg/m^2, n = 3): 0
- Adverse event Grade 1: Neuropathy (24 mg/m^2, n = 3): 1
- Adverse event Grade 1: Vomiting (24 mg/m^2, n = 3): 0
- Adverse event Grade 2: ALT increase (24 mg/m^2, n = 3): 0
- Adverse event Grade 2: AST increase (24 mg/m^2, n = 3): 0
- Adverse event Grade 2: Bilirubin increase (24 mg/m^2, n = 3): 0
- Adverse event Grade 2: Cough (24 mg/m^2, n = 3): 0
- Adverse event Grade 2: Liver dysfunction (24 mg/m^2, n = 3): 0
- Adverse event Grade 2: Pain, leg (24 mg/m^2, n = 3): 0
- Adverse event Grade 2: Pain, upper back (24 mg/m^2, n = 3): 0
- Adverse event Grade 2: Pruritus (24 mg/m^2, n = 3): 0
- Adverse event Grade 2: Urinary tract infection (24 mg/m^2, n = 3): 0
- Adverse event Grade 2: Urticaria (24 mg/m^2, n = 3): 0
- Adverse event Grade 3: Bilirubin increase (24 mg/m^2, n = 3): 0
- Adverse event Grade 3: Bowel obstruction (24 mg/m^2, n = 3): 0
- Adverse event Grade 3: Diarrhea (24 mg/m^2, n = 3): 0
- Adverse event Grade 3: GI hemorrhage (24 mg/m^2, n = 3): 0
- Adverse event Grade 3: Hypertension (24 mg/m^2, n = 3): 1
- Adverse event Grade 3: Increased INR (24 mg/m^2, n = 3): 0
- Adverse event Grade 4: Vomiting (24 mg/m^2, n = 3): 0
- Adverse event Grade 1: Abdominal pain (48 mg/m^2, n = 3): 0
- Adverse event Grade 1: Anemia (48 mg/m^2, n = 3): 0
- Adverse event Grade 1: Bowel obstruction (48 mg/m^2, n = 3): 0
- Adverse event Grade 1: Dehydration (48 mg/m^2, n = 3): 0
- Adverse event Grade 1: Diarrhea (48 mg/m^2, n = 3): 0
- Adverse event Grade 1: Fatigue (48 mg/m^2, n = 3): 1
- Adverse event Grade 1: GI hemorrhage (48 mg/m^2, n = 3): 0
- Adverse event Grade 1: Hypertension (48 mg/m^2, n = 3): 0
- Adverse event Grade 1: Increased INR (48 mg/m^2, n = 3): 1
- Adverse event Grade 1: Neuropathy (48 mg/m^2, n = 3): 0
- Adverse event Grade 1: Vomiting (48 mg/m^2, n = 3): 0
- Adverse event Grade 2: ALT increase (48 mg/m^2, n = 3): 0
- Adverse event Grade 2: AST increase (48 mg/m^2, n = 3): 0
- Adverse event Grade 2: Bilirubin increase (48 mg/m^2, n = 3): 1
- Adverse event Grade 2: Cough (48 mg/m^2, n = 3): 0
- Adverse event Grade 2: Liver dysfunction (48 mg/m^2, n = 3): 0
- Adverse event Grade 2: Pain, leg (48 mg/m^2, n = 3): 0
- Adverse event Grade 2: Pain, upper back (48 mg/m^2, n = 3): 0
- Adverse event Grade 2: Pruritus (48 mg/m^2, n = 3): 0
- Adverse event Grade 2: Urinary tract infection (48 mg/m^2, n = 3): 0
- Adverse event Grade 2: Urticaria (48 mg/m^2, n = 3): 0
- Adverse event Grade 3: Bilirubin increase (48 mg/m^2, n = 3): 1
- Adverse event Grade 3: Bowel obstruction (48 mg/m^2, n = 3): 0
- Adverse event Grade 3: Diarrhea (48 mg/m^2, n = 3): 0
- Adverse event Grade 3: GI hemorrhage (48 mg/m^2, n = 3): 0
- Adverse event Grade 3: Hypertension (48 mg/m^2, n = 3): 0
- Adverse event Grade 3: Increased INR (48 mg/m^2, n = 3): 1
- Adverse event Grade 4: Vomiting (48 mg/m^2, n = 3): 0
- Adverse event Grade 1: Abdominal pain (96 mg/m^2, n = 5): 0
- Adverse event Grade 1: Anemia (96 mg/m^2, n = 5): 0
- Adverse event Grade 1: Bowel obstruction (96 mg/m^2, n = 5): 0
- Adverse event Grade 1: Dehydration (96 mg/m^2, n = 5): 1
- Adverse event Grade 1: Diarrhea (96 mg/m^2, n = 5): 2
- Adverse event Grade 1: Fatigue (96 mg/m^2, n = 5): 0
- Adverse event Grade 1: GI hemorrhage (96 mg/m^2, n = 5): 0
- Adverse event Grade 1: Hypertension (96 mg/m^2, n = 5): 1
- Adverse event Grade 1: Increased INR (96 mg/m^2, n = 5): 0
- Adverse event Grade 1: Neuropathy (96 mg/m^2, n = 5): 0
- Adverse event Grade 1: Vomiting (96 mg/m^2, n = 5): 1
- Adverse event Grade 2: ALT increase (96 mg/m^2, n = 5): 1
- Adverse event Grade 2: AST increase (96 mg/m^2, n = 5): 1
- Adverse event Grade 2: Bilirubin increase (96 mg/m^2, n = 5): 1
- Adverse event Grade 2: Cough (96 mg/m^2, n = 5): 0
- Adverse event Grade 2: Liver dysfunction (96 mg/m^2, n = 5): 1
- Adverse event Grade 2: Pain, leg (96 mg/m^2, n = 5): 0
- Adverse event Grade 2: Pain, upper back (96 mg/m^2, n = 5): 1
- Adverse event Grade 2: Pruritus (96 mg/m^2, n = 5): 1
- Adverse event Grade 2: Urinary tract infection (96 mg/m^2, n = 5): 0
- Adverse event Grade 2: Urticaria (96 mg/m^2, n = 5): 2
- Adverse event Grade 3: Bilirubin increase (96 mg/m^2, n = 5): 1
- Adverse event Grade 3: Bowel obstruction (96 mg/m^2, n = 5): 0
- Adverse event Grade 3: Diarrhea (96 mg/m^2, n = 5): 1
- Adverse event Grade 3: GI hemorrhage (96 mg/m^2, n = 5): 0
- Adverse event Grade 3: Hypertension (96 mg/m^2, n = 5): 2
- Adverse event Grade 3: Increased INR (96 mg/m^2, n = 5): 0
- Adverse event Grade 4: Vomiting (96 mg/m^2, n = 5): 1
- relation of adverse events (AEs) to study drug (AEs of Table 4): None were related to study drug
- grade 4 AE vomiting, number of patients (all dose groups): 1
- dose-limiting toxicities (DLTs) (any patient up to cohort 5 (6-96 mg/m^2)): No dose-limiting toxicities (DLTs) were observed
- MTD (doses of 6, 12, 24, 48, and 96 mg/m^2 i.v., 3 times/week): not reached
- tolerability of treatment (overall, 17 patients): well-tolerated with no cumulative toxicity
